The assay deals with Acetylcholinesterase (Homo sapiens) (UniProt P22303).
Sequence of Acetylcholinesterase (Homo sapiens) (P22303 whole entry): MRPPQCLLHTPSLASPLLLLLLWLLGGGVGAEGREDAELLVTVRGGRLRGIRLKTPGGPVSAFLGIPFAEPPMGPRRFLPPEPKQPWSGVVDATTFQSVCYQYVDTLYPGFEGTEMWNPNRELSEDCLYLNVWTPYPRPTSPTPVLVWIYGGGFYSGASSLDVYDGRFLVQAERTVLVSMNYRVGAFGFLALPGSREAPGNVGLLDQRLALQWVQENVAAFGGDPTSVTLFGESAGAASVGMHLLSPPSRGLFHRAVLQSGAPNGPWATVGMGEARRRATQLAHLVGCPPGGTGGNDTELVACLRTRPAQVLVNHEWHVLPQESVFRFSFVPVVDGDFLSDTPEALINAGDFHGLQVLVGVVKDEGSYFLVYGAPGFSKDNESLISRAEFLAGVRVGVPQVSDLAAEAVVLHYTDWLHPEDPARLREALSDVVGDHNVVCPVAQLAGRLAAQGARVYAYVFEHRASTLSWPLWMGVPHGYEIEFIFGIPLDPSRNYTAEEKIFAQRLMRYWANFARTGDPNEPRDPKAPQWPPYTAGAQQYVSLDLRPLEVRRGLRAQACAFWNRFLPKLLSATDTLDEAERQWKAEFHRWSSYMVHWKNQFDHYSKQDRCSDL
Description: Inhibition of AChE (unknown origin) assessed as minimum inhibitory concentration by bioautographic TLC assay
`CC(=O)OC[C@]12CCCC(C)(C)[C@@H]3[C@H]1[C@@]1(CO1)C(=O)C[C@@H]32` showed an MIC of 4 µg. Take `C[C@H]1[C@@H]2[C@@H]3[C@@H]4C[C@@]1(O)OC(=O)[C@@]24CCCC3(C)C`: the MIC is 0.6 µg.

For the compound `C=C1C(=O)C[C@H]2[C@H]3[C@@H]1C2(COC(C)=O)CCCC3(C)C`, the MIC was 4 µg. Next, `C[C@H]1[C@@H]2[C@@H]3[C@@H]4C[C@@]1(O)OC[C@@]24CCCC3(C)C`: 0.8 µg; `C=C1[C@H](O)C[C@H]2[C@H]3[C@@H]1C2(COC(C)=O)CCCC3(C)C`: 4 µg; `C=C1OC(=O)C[C@H]2[C@H]3[C@@H]1[C@]2(COC(C)=O)CCCC3(C)C`: 4 µg. Next, `C[C@@H]1C(=O)C[C@H]2[C@H]3[C@@H]1C2(C)CCCC3(C)C`: 4 µg; `CC(=O)OC[C@]12CCCC(C)(C)[C@@H]3[C@H]1[C@]1(CO1)C(=O)C[C@@H]32`: 4 µg; `C=C1[C@@H](O)[C@H](O)[C@H]2[C@H]3[C@@H]1C2(C)CCCC3(C)C`: 4 µg.

(Values after ChEMBL document CHEMBL3232729, “Marsupellins A-F, ent-longipinane-type sesquiterpenoids from the Chinese liverwort Marsupella alpine with acetylcholinesterase inhibitory activity” (J Nat Prod, 2014).)
